Where “and” joins values, the source holds several entries; their conditions need not be identical. Equal values may be shown once. Toxic doses and inconclusive results are not listed. No stated cut-off is given here; in the data, active means T/C of 150% or more; inactive means T/C below 125%.
Test system: L1210 leukemia ip in BDF1 mice, survival T/C
Assay: NCI In Vivo Anticancer Drug Screen. Data for tumor model L1210 Leukemia (intraperitoneal) in B6D2F1 (BDF1) mice
Details: endpoint: mean survival time, higher = longer survival
In short: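 Transplanted-tumor mice were given test agent; controls received vehicle only. Survival readings from the two groups were divided (treated over control).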

[1] = dose: 100.0 mg/kg/injection, schedule: Q01DX001 (ip), vehicle: carboxymethylcellulose (CMC)
[2] = dose: 200.0 mg/kg/injection, schedule: Q01DX001 (ip), vehicle: carboxymethylcellulose (CMC)
[3] = dose: 100.0 mg/kg/injection, schedule: Q01DX001 (ip), vehicle: saline
[4] = dose: 200.0 mg/kg/injection, schedule: Q01DX001 (ip), vehicle: saline
[5] = dose: 400.0 mg/kg/injection, schedule: Q01DX001 (ip), vehicle: saline
[6] = dose: 100.0 mg/kg/injection, schedule: Q04DX003 (ip), vehicle: saline with Tween-80
[7] = dose: 100.0 mg/kg/injection, schedule: Q04DX003 (ip), vehicle: water
[8] = dose: 200.0 mg/kg/injection, schedule: Q04DX003 (ip), vehicle: water
[9] = dose: 400.0 mg/kg/injection, schedule: Q04DX003 (ip), vehicle: water
[10] = dose: 100.0 mg/kg/injection, schedule: Q01DX001 (ip), vehicle: Klucel (hydroxypropylcellulose) (HPC)
[11] = dose: 200.0 mg/kg/injection, schedule: Q04DX002 (ip), vehicle: Klucel (hydroxypropylcellulose) (HPC)
[12] = dose: 400.0 mg/kg/injection, schedule: Q04DX002 (ip), vehicle: Klucel (hydroxypropylcellulose) (HPC)

Measured: T/C

CN(C)C1c2cc(Cl)ccc2-c2c(N)cc(Cl)cc21 (configuration not stated)
inactive: dose: 50.0 mg/kg/injection, schedule: Q01DX001 (ip), vehicle: carboxymethylcellulose (CMC) 95 % of control | [1] 98 % of control | [2] 98 % of control | dose: 400.0 mg/kg/injection, schedule: Q01DX001 (ip), vehicle: carboxymethylcellulose (CMC) 93 % of control

Fc1ccc(-n2ncc3c2-c2ccccc2CCC3)cc1
inactive: [3] 108 % of control | [4] 104 % of control | [5] 108 % of control

CNC(=O)Oc1ccc([N+](=O)[O-])cc1
inactive: dose: 75.0 mg/kg/injection, schedule: Q01DX001 (ip), vehicle: other 101 % of control | dose: 150.0 mg/kg/injection, schedule: Q01DX001 (ip), vehicle: other 101 % of control | dose: 300.0 mg/kg/injection, schedule: Q01DX001 (ip), vehicle: other 104 % of control

CCOC(=O)C1C(O)=C(C(=O)Nc2ccccc2)C(=O)C(C(=O)O)C1C1CC=CCC1 (configuration not stated)
inactive: dose: 100.0 mg/kg/injection, schedule: Q01DX001 (ip), vehicle: other 97 % of control | [6] 94 % of control | dose: 200.0 mg/kg/injection, schedule: Q01DX001 (ip), vehicle: other 100 % of control | dose: 200.0 mg/kg/injection, schedule: Q04DX003 (ip), vehicle: saline with Tween-80 103 % of control | dose: 400.0 mg/kg/injection, schedule: Q04DX003 (ip), vehicle: saline with Tween-80 100 % of control

CC(=O)OC/C=C(\C)CCC=O
inactive: [7] 98 % of control | [8] 102 % of control | [9] 100 % of control

CCCCCCCCCCCCCCCC[n+]1cccc(C(=O)NCO)c1
inactive: [1] 93 % of control | [2] 102 % of control

c1ccc2cc(C3OCCCO3)ccc2c1
inactive: [10] 94 % of control | dose: 200.0 mg/kg/injection, schedule: Q01DX001 (ip), vehicle: Klucel (hydroxypropylcellulose) (HPC) 100 % of control | dose: 400.0 mg/kg/injection, schedule: Q01DX001 (ip), vehicle: Klucel (hydroxypropylcellulose) (HPC) 100 % of control

Cc1ccccc1Nc1ncnc2c1cnn2-c1ccccc1
inactive: [3] 102 % of control | [4] 105 % of control | [5] 115 % of control

CCN(CC)S(=O)(=O)c1ccc(OC)c(NC(=O)c2ccc(C(=O)Nc3cc(S(=O)(=O)N(CC)CC)ccc3OC)cc2)c1
inactive: [3] 97 % of control | [4] 94 % of control | [5] 102 % of control

Cc1ccccc1OS(=O)(=O)c1cccc([N+](=O)[O-])c1
inactive: dose: 100.0 mg/kg/injection, schedule: Q01DX009 (ip), vehicle: saline with Tween-80 93 % of control | dose: 200.0 mg/kg/injection, schedule: Q01DX009 (ip), vehicle: saline with Tween-80 92 % of control | dose: 400.0 mg/kg/injection, schedule: Q01DX009 (ip), vehicle: saline with Tween-80 90 % of control

COC1OC2COC(c3ccccc3)OC2C2C1N2C#N (configuration not stated)
inactive: dose: 25.0 mg/kg/injection, schedule: Q01DX001 (ip), vehicle: Klucel (hydroxypropylcellulose) (HPC) 100 % of control | dose: 50.0 mg/kg/injection, schedule: Q01DX001 (ip), vehicle: Klucel (hydroxypropylcellulose) (HPC) 93 % of control | [10] 100 % of control

CC(=N\O)/C(=N/O)c1ccc(O)cc1
inactive: dose: 5.0 mg/kg/injection, schedule: Q01DX001 (ip), vehicle: saline 97 % of control | dose: 10.0 mg/kg/injection, schedule: Q01DX001 (ip), vehicle: saline 100 % of control | dose: 20.0 mg/kg/injection, schedule: Q01DX001 (ip), vehicle: saline 97 % of control

CN(C)N=Nc1ccc(C(=O)N/N=C/c2ccc(I)cc2)cc1
inactive: dose: 75.0 mg/kg/injection, schedule: Q04DX003 (ip), vehicle: Klucel (hydroxypropylcellulose) (HPC) 101 % of control | dose: 150.0 mg/kg/injection, schedule: Q04DX003 (ip), vehicle: Klucel (hydroxypropylcellulose) (HPC) 97 % of control | dose: 300.0 mg/kg/injection, schedule: Q04DX003 (ip), vehicle: Klucel (hydroxypropylcellulose) (HPC) 89 % of control

O=C(O)c1ccccc1S(=O)O
inactive: dose: 50.0 mg/kg/injection, schedule: Q04DX002 (ip), vehicle: other 119 % of control | dose: 100.0 mg/kg/injection, schedule: Q04DX002 (ip), vehicle: other 122 % of control | [11] 89 % of control | dose: 200.0 mg/kg/injection, schedule: Q04DX002 (ip), vehicle: other 91 % of control | [12] 103 % of control

Cc1cc(C)[n+]2ccccc2n1
inactive: dose: 75.0 mg/kg/injection, schedule: Q01DX001 (ip), vehicle: saline 102 % of control | dose: 150.0 mg/kg/injection, schedule: Q01DX001 (ip), vehicle: saline 98 % of control

CC(=O)Nc1ccc(Cc2cc(=O)[nH]c(=O)[nH]2)cc1
inactive: dose: 9.38 mg/kg/injection, schedule: Q01DX001 (ip), vehicle: saline with Tween-80 106 % of control | dose: 18.75 mg/kg/injection, schedule: Q01DX001 (ip), vehicle: saline with Tween-80 96 % of control | dose: 37.5 mg/kg/injection, schedule: Q01DX001 (ip), vehicle: saline with Tween-80 104 % of control

Cc1cnc(SCc2ccc(Cl)cc2)nc1N(Cc1ccccc1)Cc1ccccc1
inactive: dose: 100.0 mg/kg/injection, schedule: Q01DX Z (ip), vehicle: methylcellulose (MC) 87 % of control

O=S(=O)(CCCl)c1ccc2ccccc2c1
inactive: dose: 25.0 mg/kg/injection, schedule: Q04DX002 (ip), vehicle: Klucel (hydroxypropylcellulose) (HPC) 100 % of control | dose: 50.0 mg/kg/injection, schedule: Q04DX002 (ip), vehicle: Klucel (hydroxypropylcellulose) (HPC) 104 % of control | dose: 100.0 mg/kg/injection, schedule: Q04DX002 (ip), vehicle: Klucel (hydroxypropylcellulose) (HPC) 96 % of control

Cc1cccc(NCC(=O)NN)c1C
inactive: dose: 50.0 mg/kg/injection, schedule: Q01DX009 (ip), vehicle: carboxymethylcellulose (CMC) 102 % of control and 104 % of control | dose: 50.0 mg/kg/injection, schedule: Q04DX002 (ip), vehicle: carboxymethylcellulose (CMC) 96 % of control and 101 % of control | dose: 50.0 mg/kg/injection, schedule: Q04DX003 (ip), vehicle: carboxymethylcellulose (CMC) 102 % of control | dose: 100.0 mg/kg/injection, schedule: Q01DX009 (ip), vehicle: carboxymethylcellulose (CMC) 104 % of control and 106 % of control | dose: 100.0 mg/kg/injection, schedule: Q04DX002 (ip), vehicle: carboxymethylcellulose (CMC) 101 % of control and 103 % of control | dose: 100.0 mg/kg/injection, schedule: Q04DX003 (ip), vehicle: carboxymethylcellulose (CMC) 102 % of control | dose: 200.0 mg/kg/injection, schedule: Q01DX009 (ip), vehicle: carboxymethylcellulose (CMC) 97 % of control | [11] 92 % of control | dose: 200.0 mg/kg/injection, schedule: Q04DX002 (ip), vehicle: carboxymethylcellulose (CMC) 104 % of control and 107 % of control | dose: 200.0 mg/kg/injection, schedule: Q04DX003 (ip), vehicle: carboxymethylcellulose (CMC) 90 % of control | [12] 113 % of control

CCOC(=O)c1[nH]nc(CC)c1O
inactive: dose: 50.0 mg/kg/injection, schedule: Q04DX003 (ip), vehicle: gum acacia 110 % of control | dose: 100.0 mg/kg/injection, schedule: Q01DX009 (ip), vehicle: gum acacia 96 % of control | dose: 100.0 mg/kg/injection, schedule: Q04DX003 (ip), vehicle: gum acacia 98 % of control | dose: 200.0 mg/kg/injection, schedule: Q01DX009 (ip), vehicle: gum acacia 92 % of control | dose: 200.0 mg/kg/injection, schedule: Q04DX003 (ip), vehicle: gum acacia 103 % of control | dose: 400.0 mg/kg/injection, schedule: Q01DX009 (ip), vehicle: gum acacia 105 % of control | dose: 400.0 mg/kg/injection, schedule: Q04DX003 (ip), vehicle: gum acacia 108 % of control

CC1C/C(=C\NC(N)=O)C(=O)O1 (configuration not stated)
inactive: dose: 100.0 mg/kg/injection, schedule: Q01DX009 (ip), vehicle: water 96 % of control | [7] 94 % of control | dose: 200.0 mg/kg/injection, schedule: Q01DX009 (ip), vehicle: water 100 % of control | [8] 89 % of control | dose: 400.0 mg/kg/injection, schedule: Q01DX009 (ip), vehicle: water 102 % of control | [9] 96 % of control

CCCCCCCCCCCCCCCCCc1nc(N)nc(N(C)C)n1
inactive: dose: 25.0 mg/kg/injection, schedule: Q04DX003 (ip), vehicle: saline with Tween-80 97 % of control | dose: 50.0 mg/kg/injection, schedule: Q04DX003 (ip), vehicle: saline with Tween-80 96 % of control | [6] 97 % of control
